In patent US9834542B2, “LXR modulators” (BRISTOL-MYERS SQUIBB COMPANY, priority 2013, dated 2017):

Molecular target: T1, LXRβ (Homo sapiens, UniProt P55055)
T1 construct: Co-transfection expression plasmids, comprising full-length LXRα (pCMX-h LXRα[…] or LXRβ (pCMX-hLXRβ)); expressed in transfected cells; host or cells: CV-1 African Green Monkey Kidney Cells
T1 sequence (P55055 1-460): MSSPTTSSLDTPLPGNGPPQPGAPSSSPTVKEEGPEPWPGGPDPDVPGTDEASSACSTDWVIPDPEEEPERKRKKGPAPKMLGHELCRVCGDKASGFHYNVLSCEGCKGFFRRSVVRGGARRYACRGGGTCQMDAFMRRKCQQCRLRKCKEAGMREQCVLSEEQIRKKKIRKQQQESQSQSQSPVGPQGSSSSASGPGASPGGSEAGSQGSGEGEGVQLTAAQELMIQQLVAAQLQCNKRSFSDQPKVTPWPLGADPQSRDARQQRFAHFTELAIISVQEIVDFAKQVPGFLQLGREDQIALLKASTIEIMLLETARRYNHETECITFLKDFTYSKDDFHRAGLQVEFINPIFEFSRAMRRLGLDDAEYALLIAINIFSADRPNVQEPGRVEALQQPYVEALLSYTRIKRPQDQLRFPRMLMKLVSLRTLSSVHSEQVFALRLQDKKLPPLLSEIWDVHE
T1 sequence (P19793 1-462 partner): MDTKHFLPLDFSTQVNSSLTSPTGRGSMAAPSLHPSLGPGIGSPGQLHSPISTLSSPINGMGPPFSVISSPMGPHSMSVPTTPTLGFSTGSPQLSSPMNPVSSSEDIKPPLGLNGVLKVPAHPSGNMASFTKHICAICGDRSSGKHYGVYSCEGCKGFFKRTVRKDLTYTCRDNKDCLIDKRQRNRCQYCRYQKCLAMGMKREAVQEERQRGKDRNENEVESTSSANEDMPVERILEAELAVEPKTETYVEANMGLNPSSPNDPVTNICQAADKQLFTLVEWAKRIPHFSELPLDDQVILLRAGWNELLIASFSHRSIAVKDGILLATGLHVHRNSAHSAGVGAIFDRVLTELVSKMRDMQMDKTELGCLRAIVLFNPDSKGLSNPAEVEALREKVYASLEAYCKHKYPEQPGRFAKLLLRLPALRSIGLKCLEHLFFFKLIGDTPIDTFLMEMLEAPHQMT
Assay: Co-transfection assay (LXRE luciferase reporter), LXRβ
Type: cell-based
Details: for EC50: CV-1 cells transfected with pCMX-hLXRβ and LXREx1-Tk-Luciferase, 20 hours incubation; for Emax: LXRβ co-transfection, relative to high control 1-(2,4-difluorobenzyl)-2-oxo-6-(4-phenoxyphenyl)-4-(trifluoromethyl)-1,2-dihydropyridine-3-carbonitrile, read-out: % Efficacy
Method in brief: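 Luciferase signal from an LXREx1-Tk reporter was measured after transfected CV-1 cells (full-length hLXRβ, endogenous RXR) were treated with compounds for 20 h at 37 °C, ≤0.5% DMSO. EC50 came from four-parameter fits of 11-point ½-log curves; % efficacy versus a reference agonist maximum.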

| SMILES | EC50 [µM] | Emax [%] |
| --- | --- | --- |
| CS(=O)(=O)c1cccc(-c2ccc(-n3cc(C(F)(F)F)nc3Cl)c(-n3nncc3-c3ccc(Cl)cc3)c2)c1 [Example 2, 5-(4-chlorophenyl)-1-{4-[2-chloro-4-(trifluoromethyl)-1H-imidazol-1-yl]-3′-(methylsulfonyl)biphenyl-3-yl}-1H-1,2,3-triazole] | 0.68 | 80 |
| COCc1c(F)cc(-c2cc(F)c(-n3cc(C(F)(F)F)nc3C)c(-n3nncc3-c3ccc(OC(F)(F)F)cc3)c2)cc1S(C)(=O)=O [Example 206, 1-{3′,5-difluoro-4′-[(methyloxy)methyl]-5′-(methylsulfonyl)-4-[2-methyl-4-(trifluoromethyl)-1H-imidazol-1-yl]biphenyl-3-yl}-5-{4-[(trifluoromethyl)oxy]phenyl}-1H-1,2,3-triazole] | 0.088 | 95 |
| Cc1nc(-c2cc(-c3cc(F)c(CO)c(S(C)(=O)=O)c3)ccc2-n2cc(C(F)(F)F)nc2C)c(-c2ccc(F)cc2F)o1 [Example 454, (3′-(5-(2,4-difluorophenyl)-2-methyloxazol-4-yl)-3-fluoro-4′-(2-methyl-4-(trifluoromethyl)-1H-imidazol-1-yl)-5-(methylsulfonyl)biphenyl-4-yl)methanol] | 0.037 | 38 |
| Cc1nc(C(F)(F)F)cn1-c1ccc(-c2cc(Cl)c(CO)c(S(C)(=O)=O)c2)cc1-n1nncc1-c1ccc(Cl)cc1 [Example 70, {3-chloro-3′-[5-(4-chlorophenyl)-1H-1,2,3-triazol-1-yl]-5-(methylsulfony)-4′-[2-methyl-4-(trifluoromethyl)-1H-imidazol-1-yl]biphenyl-4-yl}methanol] | 0.361 | 40 |
| Cc1nc(C(F)(F)F)cn1-c1ccc(-c2ccc(CO)c(S(C)(=O)=O)c2)cc1-c1ocnc1Cc1ccc(Cl)cc1 [Example 635, (3′-(4-(4-chlorobenzyl)oxazol-5-yl)-4′-(2-methyl-4-(trifluoromethyl)-1H-imidazol-1-yl)-3-(methylsulfonyl)-[1,1′-biphenyl]-4-yl)methanol] | 0.229 | 58 |
| Cc1nc(-c2cc(-c3cccc(S(C)(=O)=O)c3)ccc2-n2cc(C(F)(F)F)nc2C)c(-c2cc(Cl)ccn2)o1 [Example 434, 5-(4-chloropyridin-2-yl)-2-methyl-4-(4-(2-methyl-4-(trifluoromethyl)-1H-imidazol-1-yl)-3′-(methylsulfonyl)biphenyl-3-yl)oxazole] | 0.462 | 65 |
| Cc1nc(-c2cc(-c3cc(F)c(CO)c(S(C)(=O)=O)c3)ccc2-n2cc(C(F)(F)F)nc2C)c(-c2ccc(OC(F)F)c(OCC3CC3)c2)o1 [Example 383] | 0.023 | 67 |
| Cc1nc(-c2cc(-c3cccc(S(C)(=O)=O)c3)ccc2-n2cc(C(F)(F)F)nc2C)c(-c2cc(F)cc(Cl)c2)o1 [Example 449, 5-(3-chloro-5-fluorophenyl)-2-methyl-4-(4-(2-methyl-4-(trifluoromethyl)-1H-imidazol-1-yl)-3′-(methylsulfonyl)biphenyl-3-yl)oxazole] | 0.183 | 57 |
| Cc1nc(-c2cc(-c3cc(F)c(CO)c(S(C)(=O)=O)c3)ccc2-n2cc(C(F)(F)F)nc2C)c(-c2ccc3ccccc3c2)o1 [Example 437, (3-fluoro-4′-(2-methyl-4-(trifluoromethyl)-1H-imidazol-1-yl)-3′-(2-methyl-5-(naphthalen-2-yl)oxazol-4-yl)-5-(methylsulfonyl)biphenyl-4-yl)methanol] | 0.034 | 76 |
| Cc1nc(-c2cc(-c3cc(F)c(CO)c(S(C)(=O)=O)c3)ccc2-n2cc(C(F)(F)F)nc2C)c(-c2ccc(C(F)(F)F)nc2)o1 [Example 568, (3-fluoro-4′-(2-methyl-4-(trifluoromethyl)-1H-imidazol-1-yl)-3′-(2-methyl-5-(6-(trifluoromethyl)pyridin-3-yl)oxazol-4-yl)-5-(methylsulfonyl)-[1,1′-biphenyl]-4-yl)methanol] | 0.552 | 68 |
| Cc1nc(-c2cc(-c3cccc(S(C)(=O)=O)c3)ccc2-n2cc(C(F)(F)F)nc2C)c(-c2ccc3c(c2)CC(C)(C)O3)o1 [Example 419, 5-(2,2-dimethyl-2,3-dihydrobenzofuran-5-yl)-2-methyl-4-(4-(2-methyl-4-(trifluoromethyl)-1H-imidazol-1-yl)-3′-(methylsulfonyl)biphenyl-3-yl)oxazole] | 0.145 | 66 |
| Cc1nc(C(F)(F)F)cn1-c1ccc(-c2cc(F)c(CO)c(S(C)(=O)=O)c2)cc1-c1ocnc1-c1ccc(Cl)cc1 [Example 355, {3′-[4-(4-chlorophenyl)-1,3-oxazol-5-yl]-3-fluoro-5-(methylsulfonyl)-4′-[2-methyl-4-(trifluoromethyl)-1H-imidazol-1-yl]biphenyl-4-yl}methanol] | 0.105 | 98 |
| Cc1nc(C(F)(F)F)cn1-c1ccc(-c2cccc(S(C)(=O)=O)c2)cc1-n1nncc1-c1ccc(OC(F)(F)F)cc1 [Example 49, 1-{3′-(methylsulfonyl)-4-[2-methyl-4-(trifluoromethyl)-1H-imidazol-1-yl]biphenyl-3-yl}-5-{4-[(trifluoromethyl)oxy]phenyl}-1H-1,2,3-triazole] | 0.164 | 105 |
| Cc1cc(-c2cc(-c3ccc(CO)c(S(C)(=O)=O)c3)ccc2-n2cc(C(F)(F)F)nc2C)n(-c2ccc(OC(F)F)cc2)n1 [Example 302, (3′-(1-(4-(difluoromethoxy)phenyl)-3-methyl-1H-pyrazol-5-yl)-4′-(2-methyl-4-(trifluoromethyl)-1H-imidazol-1-yl)-3-(methylsulfonyl)-[1,1′-biphenyl]-4-yl)methanol] | 0.025 | 81 |
| COc1ncc(-c2oc(C)nc2-c2cc(-c3cccc(S(C)(=O)=O)c3)ccc2-n2cc(C(F)(F)F)nc2C)cc1F [Example 439, 5-(5-fluoro-6-methoxypyridin-3-yl)-2-methyl-4-(4-(2-methyl-4-(trifluoromethyl)-1H-imidazol-1-yl)-3′-(methylsulfonyl)biphenyl-3-yl)oxazole] | 0.41 | 80 |
| CCC(F)(F)c1cn(-c2ccc(-c3cc(F)c(CO)c(S(C)(=O)=O)c3)cc2-n2nncc2-c2ccc(OC(F)(F)F)cc2)c(C)n1 [Example 186, {4′-[4-(1,1-difluoropropyl)-2-methyl-1H-imidazol-1-yl]-3-fluoro-5-(methylsulfonyl)-3′-(5-{4-[(trifluoromethyl)oxy]phenyl}-1H-1,2,3-txiazol-1-yl)biphenyl-4-yl}methanol] | 0.168 | 81 |
| Cc1nc(-c2cc(-c3cccc(S(C)(=O)=O)c3)ccc2-n2cc(C(F)(F)F)nc2C)c(-c2ccc(Cl)cn2)o1 [Example 431, 5-(5-chloropyridin-2-yl)-2-methyl-4-(4-(2-methyl-4-(trifluoromethyl)-1H-imidazol-1-yl)-3′-(methylsulfonyl)biphenyl-3-yl)oxazole] | 0.358 | 85 |
| Cc1nc(-c2cc(-c3cccc(S(C)(=O)=O)c3)ccc2-n2cc(C(F)(F)F)nc2C)c(-c2ccc(F)cc2F)o1 [Example 453, 5-(2,4-difluorophenyl)-2-methyl-4-(4-(2-methyl-4-(trifluoromethyl)-1H-imidazol-1-yl)-3′-(methylsulfonyl)biphenyl-3-yl)oxazole] | 0.071 | 43 |
| COc1ccc(-c2cnnn2-c2cc(-c3cccc(S(C)(=O)=O)c3)ccc2-n2cc(C(F)F)nc2C)cc1 [Example 166, 1-{4-[4-(difluoromethyl)-2-methyl-1H-imidazol-1-yl]-3′-(methylsulfonyl)biphenyl-3-yl}-5-[4-(methyloxy)phenyl]-1H-1,2,3-triazole] | 1.65 | 78 |
| Cc1ccc(-c2cnnn2-c2cc(-c3cccc(S(C)(=O)=O)c3)ccc2-n2cc(C(F)(F)F)nc2C)cc1 [Example 50, 5-(4-methylphenyl)-1-{3′-(methylsulfonyl)-4-[2-methyl-4-(trifluoromethyl)-1H-imidazol-1-yl]biphenyl-3-yl}-1H-1,2,3-triazole] | 0.171 | 88 |
